Literature values as cited in US20080138388A1 (priority 2005, published 2008).
Read-outs that look alike come from different tables or passages of the source.

logP (octanol-water partition coefficient, free state)	SMILES	logP (octanol-water partition coefficient, free state) (free state)
–	Nc1c(Br)cc(Br)cc1CN[C@H]1CC[C@H](O)CC1 [ambroxol]	3.00
–	CCCN1C[C@H](CSC)C[C@@H]2c3cccc4[nH]cc(c34)C[C@H]21 [pergolide]	4.07
–	OC(CCN1CCCCC1)(c1ccccc1)c1ccccc1 [pridinol]	3.79
–	CCOc1ccccc1OCCN[C@H](C)Cc1ccc(OC)c(S(N)(=O)=O)c1 [tamsulosin]	3.22
4.00	CCOC(=O)[C@H](CCc1ccccc1)N[C@@H](C)C(=O)N1[C@H](C(=O)O)C[C@H]2CCCC[C@@H]21 [trandopril]	–
